Molecules are shown by their SMILES. Where “and” joins values, the source holds several entries; their conditions need not be identical. Equal entries are not always repeated.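 Each compound was tested at five concentrations against cells in 96-well plates for 48 hours. GI50: concentration for 50% inhibition of growth.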 Calls of active or inactive are those of the source. Cut-off read from the data, not from the text of the source: active = GI50 up to about 1.1 µM and inactive = higher.

Results on eight compounds are retold here after ChEMBL document CHEMBL1201862, “PubChem BioAssay data set” (2004).

Common to all, as to assay: NCI anticancer screen, dose series, 48 h
For assay [1], the system named is 786-0.
Assay [2] concerns BT-549.
Assay [3] deals with CAKI-1.
The subject of assay [4] is DU-145.
Assay [5] has as its system HT-29.
In assay [6] the test system is K562.
Assay [7] relates to M14.
Assay [8] deals with MOLT-4.
Assay [9] concerns NCI-H226.
Assay [10] relates to RXF 393.
Assay [11] concerns SF-268.
Assay [12] relates to SK-MEL-2.
Assay [13] concerns SN12C.
In assay [14] the test system is SNB-19.
Assay [15] relates to TK-10.
The test system of assay [16] is UO-31.
For assay [17], the system named is COLO 205.
Assay [18] has as its system MDA-MB-435.
Assay [19] has as its system SNB-75.
Assay [20] deals with SK-OV-3.

Turning to `CC(=O)OCC1OC(n2c(C)c(C)cc(C#N)c2=S)C(OC(C)=O)C(OC(C)=O)C1OC(C)=O` (stereo not given), the GI50 in assay [1], in assay [2], in assay [3], in [4], in assay [5] and in [6] was > 100 µM (inactive) in each case. In addition, the GI50 was > 100 µM (inactive) in [7]; > 100 µM (inactive) in assay [8]; > 100 µM (inactive) in assay [9]; > 100 µM (inactive) in assay [10]; 60.5 µM (inactive) in assay [11]; > 100 µM (inactive) and 72.1 µM (inactive) in [12]. Also, the GI50 in assay [13], in assay [14], in assay [15] and in assay [16] was > 100 µM (inactive) each time.

`O=C(Nc1nc(C23CC4CC(CC(C4)C2)C3)cs1)c1cc2cc(Cl)ccc2oc1=O`: the GI50 in [1], in assay [3], in [17], in [4], in assay [5] and in assay [6] was > 100 µM (inactive) throughout. Moreover, the GI50 in assay [18] is > 100 µM (inactive); in assay [8], > 100 µM (inactive); in [9], > 100 µM (inactive); in [10], > 100 µM (inactive); in assay [11], > 10 µM (inactive); in assay [13], > 100 µM (inactive). In addition, the GI50 in [14], in assay [19], in assay [15] and in assay [16] was > 100 µM (inactive) in each case.

As to `CCCCCC(=O)NC(=S)Nc1nnn[nH]1`, the GI50 in [1], in assay [3], in assay [17], in assay [4], in assay [6] and in assay [7] was > 100 µM (inactive) each time. Also, the GI50 in [18], in [8], in [10], in assay [11], in assay [12] and in assay [20] was > 100 µM (inactive) each time. For the same compound, the GI50 in assay [13], in [14], in [19], in assay [15] and in assay [16] was > 100 µM (inactive) in each case.

For the compound `c1ccc(CSC(SCc2ccccc2)c2ccc3c(c2)OCO3)cc1`, the GI50 in assay [1], in [3], in assay [17], in [4], in assay [5] and in assay [6] was > 10 µM (inactive) each time. Besides, the GI50 in assay [7], in assay [8], in [9], in [10], in assay [11] and in assay [12] was > 10 µM (inactive) throughout. Also, the GI50 in assay [20] is 6.44 µM (inactive); in assay [13] it was > 10 µM (inactive); in assay [14], > 10 µM (inactive); in assay [19], > 10 µM (inactive); in [15] it was > 10 µM (inactive); in assay [16] it was > 10 µM (inactive).

On to `COC1C(O)C(C)OC(O[C@H]2CC[C@@]3(C)C(CC[C@@H]4[C@@H]3CC[C@]3(C)[C@@H](C(C)OC5OC(CO)C(O)C(O)C5O)CC[C@]43O)C2)C1O` (stereo not given in full), for which the GI50 in assay [1], in assay [3], in assay [5], in assay [6], in [7] and in assay [18] was > 25 µM (inactive) each time. The GI50 in [8], in assay [9], in assay [11], in assay [12], in [20] and in [13] was > 25 µM (inactive) in each case. The GI50 in assay [14], in assay [19], in assay [15] and in assay [16] was > 25 µM (inactive) each time.

Turning to `N#Cc1ccccc1C#C/C=C\C#Cc1ccccn1`, the GI50 in assay [1] is 20.3 µM (inactive); in [3], 21.8 µM (inactive); in [17], 27.4 µM (inactive); in assay [4] it was 28.6 µM (inactive); in [5], 18 µM (inactive); in [7], 15.5 µM (inactive). Further, the GI50 was 14.1 µM (inactive) in [10]; 16.1 µM (inactive) in assay [11]; 15 µM (inactive) in [12]; 25.1 µM (inactive) in assay [20]; 20.4 µM (inactive) in [13]; 25.9 µM (inactive) in assay [14]. The GI50 in assay [19] was 24.8 µM (inactive); in assay [15] it was 30.9 µM (inactive); in assay [16], 15.3 µM (inactive).

`CC1(C)SCc2nc3ccccc3n21`: the GI50 in assay [1], in assay [3], in assay [17], in assay [4], in assay [5] and in [6] was > 100 µM (inactive) each time. Moreover, the GI50 in [7] was > 100 µM (inactive); in assay [18], > 100 µM (inactive); in [8], > 100 µM (inactive); in assay [9] it was 89.9 µM (inactive); in assay [10] it was > 100 µM (inactive); in assay [11], > 100 µM (inactive). Moreover, the GI50 in [12] was > 100 µM (inactive); in assay [20], > 100 µM (inactive); in assay [13] it was > 100 µM (inactive); in assay [14], > 100 µM (inactive); in assay [19], 0.0119 µM (active); in [15] it was > 100 µM (inactive). In [16], the GI50 is > 100 µM (inactive).

For the compound `Cn1ccc2c(c1=O)C(=O)OC2(C)C` [CERPEGIN], the GI50 in assay [1], in [2], in [3], in assay [17], in assay [4] and in [5] was > 100 µM (inactive) each time. The GI50 in assay [6], in assay [7], in assay [8], in assay [9], in [10] and in assay [11] was > 100 µM (inactive) each time. Moreover, the GI50 in assay [20] is > 100 µM (inactive); in [13], > 100 µM (inactive); in assay [14], 25.5 µM (inactive); in assay [19], > 100 µM (inactive); in [15], > 100 µM (inactive); in assay [16], 59.2 µM (inactive).
